Test results taken from ChEMBL document CHEMBL1145032, “Effects of heterocyclic aromatic substituents on binding affinities at two distinct sites of somatostatin receptors. Correlation with the electrostatic potential of the substituents” (J Med Chem, 2003).

Assays:
[1] = pKHB (hydrogen bond basicity of the heterocycle) was determined
[2] = pKa was determined; type: physicochemical
[3] = molecular target: T1, Somatostatin receptor type 4 (Homo sapiens, UniProt P31391); assay: Tested for binding affinity at human Somatostatin receptor type 4 using ([3-125I-Tyr11)]-SRIF-14 as the radioligand
[4] = molecular target: Substance-P receptor (Homo sapiens, UniProt P25103); assay: Binding affinity against Tachykinin receptor 1
[5] = molecular target: T1, Somatostatin receptor type 4; assay: Inhibitory concentration required against human Somatostatin receptor type 4
[6] = molecular target: Somatostatin receptor type 2 (Homo sapiens, UniProt P30874); assay: Inhibitory concentration required against human Somatostatin receptor type 2
Sequence of Somatostatin receptor type 2 (P30874 whole entry): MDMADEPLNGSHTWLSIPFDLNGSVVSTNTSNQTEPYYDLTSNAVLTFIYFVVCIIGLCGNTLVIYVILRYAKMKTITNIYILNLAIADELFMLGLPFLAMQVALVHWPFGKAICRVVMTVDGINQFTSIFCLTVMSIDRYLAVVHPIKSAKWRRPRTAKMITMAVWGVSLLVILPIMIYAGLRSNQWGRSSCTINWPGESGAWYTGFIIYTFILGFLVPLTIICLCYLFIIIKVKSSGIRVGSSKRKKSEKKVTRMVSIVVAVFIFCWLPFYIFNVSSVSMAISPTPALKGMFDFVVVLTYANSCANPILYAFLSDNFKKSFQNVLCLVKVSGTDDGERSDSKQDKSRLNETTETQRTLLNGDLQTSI

T1 sequence (P31391 whole entry): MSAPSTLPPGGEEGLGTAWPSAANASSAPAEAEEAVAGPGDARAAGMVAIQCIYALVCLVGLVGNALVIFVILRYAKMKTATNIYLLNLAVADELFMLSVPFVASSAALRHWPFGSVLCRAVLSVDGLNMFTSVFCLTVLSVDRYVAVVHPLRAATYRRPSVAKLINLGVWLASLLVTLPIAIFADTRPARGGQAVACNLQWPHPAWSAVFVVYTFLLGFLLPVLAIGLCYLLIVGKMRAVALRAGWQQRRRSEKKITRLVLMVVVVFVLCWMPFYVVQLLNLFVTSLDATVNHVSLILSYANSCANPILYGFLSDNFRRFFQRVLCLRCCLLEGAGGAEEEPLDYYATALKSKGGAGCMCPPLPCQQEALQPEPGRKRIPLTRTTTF
Sequence of Substance-P receptor (P25103 whole entry): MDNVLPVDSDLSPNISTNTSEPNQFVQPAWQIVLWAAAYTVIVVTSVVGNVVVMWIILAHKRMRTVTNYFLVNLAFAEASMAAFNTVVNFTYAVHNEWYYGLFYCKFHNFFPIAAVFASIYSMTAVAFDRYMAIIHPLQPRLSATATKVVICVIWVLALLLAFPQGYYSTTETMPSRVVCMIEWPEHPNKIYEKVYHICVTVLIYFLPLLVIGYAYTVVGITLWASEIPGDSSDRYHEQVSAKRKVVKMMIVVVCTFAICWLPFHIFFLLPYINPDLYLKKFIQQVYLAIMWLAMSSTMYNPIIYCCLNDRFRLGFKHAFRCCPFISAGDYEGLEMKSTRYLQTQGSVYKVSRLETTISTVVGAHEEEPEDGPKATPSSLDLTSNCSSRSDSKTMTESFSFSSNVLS

SMILES	pKHB [1]	pKa [2]	Ki [3]	Ki [4]	IC50 [5]	IC50 [6]
NCCCCCOC[C@H]1O[C@@H](OCCc2c[nH]c3ccccc23)[C@H](OCc2ccccc2)[C@@H](OCc2ccccc2)[C@@H]1OCc1cnccn1	1.95	0.7	260 nM	–	–	–
NCCCCCOC[C@H]1O[C@@H](OCCc2c[nH]c3ccccc23)[C@H](OCc2ccccc2)[C@@H](OCc2ccccc2)[C@@H]1OCc1ccccc1	–	–	1650 nM	150 nM	–	–
NCCCCCOC[C@H]1O[C@@H](OCCc2c[nH]c3ccccc23)[C@H](OCc2ccccc2)[C@@H](OCc2ccccc2)[C@@H]1OCc1cccnc1	1.86	5.2	360 nM	–	–	–
CC(=O)NCCCCCOC[C@H]1O[C@@H](OCCc2c[nH]c3ccccc23)[C@H](OCc2ccccc2)[C@@H](OCc2ccccc2)[C@@H]1O	–	–	–	27 nM	–	–
NCCCCCOC[C@H]1O[C@@H](OCCc2c[nH]c3ccccc23)[C@H](OCc2ccccc2)[C@@H](OCc2ccccc2)[C@@H]1OCc1ccccn1	1.86	5.2	890 nM	–	–	–
NCCCCCOC[C@H]1O[C@@H](OCCc2c[nH]c3ccccc23)[C@H](OCc2ccccc2)[C@@H](OCc2ccccc2)[C@@H]1OCc1ccc(Cl)nc1	–	0.5	1200 nM	–	–	–
Cc1ccc(CO[C@H]2[C@H](OCc3ccccc3)[C@@H](OCc3ccccc3)[C@H](OCCc3c[nH]c4ccccc34)O[C@@H]2COCCCCCN)cn1	1.05	6.1	1260 nM	–	–	–
NCCCCCOC[C@H]1O[C@@H](OCCc2c[nH]c3ccccc23)[C@H](OCc2ccccc2)[C@@H](OCc2ccccc2)[C@@H]1OCc1ccc(F)nc1	0.95	-0.4	680 nM	–	–	–
NCCCCCOC[C@H]1O[C@@H](OCCc2c[nH]c3ccccc23)[C@H](OCc2cnc[nH]2)[C@@H](OCc2ccccc2)[C@@H]1OCc1cccnc1	–	–	53 nM	–	53 nM	2250 nM
NCCCCCOC[C@H]1O[C@@H](OCCc2c[nH]c3ccccc23)[C@H](OCc2ccccc2)[C@@H](OCc2ccccc2)[C@@H]1OCc1ccncc1	1.86	5.2	570 nM	–	–	–
NCCCCCOC[C@H]1O[C@@H](OCCc2c[nH]c3ccccc23)[C@H](OCc2ccccc2)[C@@H](OCc2ccccc2)[C@@H]1OCc1c[nH]cn1	2.03	7.2	1040 nM	–	–	–
NCCCCCOC[C@@H]1O[C@H](OCCc2c[nH]c3ccccc23)[C@H](OCc2cnc[nH]2)C(OCc2ccccc2)[C@H]1OCCc1cccnc1 (single isomer, unassigned; (+))	–	–	–	–	800 nM	–
NCCCCCOC[C@@H]1O[C@H](OCCc2c[nH]c3ccccc23)[C@H](OCc2cnc[nH]2)C(OCc2ccccc2)[C@H]1OCc1ccccc1 (single isomer, unassigned; (+))	–	–	100 nM	–	100 nM	800 nM
